26 substances from article PMC7932537, “Quantitative profiling of protease specificity” (PLoS Computational Biology, 2021) can be followed below.

One assay deals with MMP-9 (Homo sapiens, UniProt P14780). The experiment in a line: K(obs) of individual phage substrates (set of 1369). The settings on record: MMP9. The assay is classed as biochemical.
The subject of assay [1] is MMP-2. The experiment in a line: Substrate phage display with NGS: relative probability (RP) of P3-P1' tetramer clusters.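 Also: ratio of tetramer probability after protease selection to that in naive phage library.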 The settings on record: MMP2. It counts as biochemical, human.
Assay [2] has as its target T1, MMP-2 (Homo sapiens, UniProt P08253).
T1 sequence (P08253 110-660): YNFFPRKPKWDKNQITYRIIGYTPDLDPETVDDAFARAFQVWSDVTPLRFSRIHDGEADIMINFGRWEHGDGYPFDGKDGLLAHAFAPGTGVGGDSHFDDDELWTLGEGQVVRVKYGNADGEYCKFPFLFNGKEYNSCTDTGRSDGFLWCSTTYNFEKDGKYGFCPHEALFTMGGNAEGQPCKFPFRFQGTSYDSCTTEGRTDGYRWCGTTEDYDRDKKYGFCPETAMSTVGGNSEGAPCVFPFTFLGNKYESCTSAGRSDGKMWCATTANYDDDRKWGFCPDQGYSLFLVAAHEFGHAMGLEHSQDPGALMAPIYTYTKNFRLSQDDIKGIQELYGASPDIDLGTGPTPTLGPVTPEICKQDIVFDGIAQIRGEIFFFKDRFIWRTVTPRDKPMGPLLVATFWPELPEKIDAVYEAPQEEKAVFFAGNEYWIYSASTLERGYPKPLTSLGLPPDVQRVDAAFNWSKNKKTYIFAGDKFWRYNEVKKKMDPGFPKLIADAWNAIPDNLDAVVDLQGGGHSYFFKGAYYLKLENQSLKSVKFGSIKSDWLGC
The experiment in a line: K(obs) of individual phage substrates (set of 1369). The assay is classed as biochemical. The settings on record: MMP2.

The mark [3] stands for this setting: individual phage substrates, set of 1369 peptides, hyphen in sequence marks cleavage position.
The mark [4] stands for this setting: RP of the P3-P1' tetramer contained in the substrate (substrate phage display with NGS).
The mark [5] stands for this setting: individual phage substrates, set of 1369 peptides, cleavage position marked by hyphen in sequence.
The mark [6] stands for this setting: individual phage substrate of the set of 1369 peptides, dash in the sequence marks the cleavage position.
[7] abbreviates: RP of the P3-P1' tetramer contained in the substrate.
Where [8] appears, read: individual phage substrate of the set of 1369 peptides, cleavage position marked by '-'.

Chain of MMP-9 (P14780 94-707): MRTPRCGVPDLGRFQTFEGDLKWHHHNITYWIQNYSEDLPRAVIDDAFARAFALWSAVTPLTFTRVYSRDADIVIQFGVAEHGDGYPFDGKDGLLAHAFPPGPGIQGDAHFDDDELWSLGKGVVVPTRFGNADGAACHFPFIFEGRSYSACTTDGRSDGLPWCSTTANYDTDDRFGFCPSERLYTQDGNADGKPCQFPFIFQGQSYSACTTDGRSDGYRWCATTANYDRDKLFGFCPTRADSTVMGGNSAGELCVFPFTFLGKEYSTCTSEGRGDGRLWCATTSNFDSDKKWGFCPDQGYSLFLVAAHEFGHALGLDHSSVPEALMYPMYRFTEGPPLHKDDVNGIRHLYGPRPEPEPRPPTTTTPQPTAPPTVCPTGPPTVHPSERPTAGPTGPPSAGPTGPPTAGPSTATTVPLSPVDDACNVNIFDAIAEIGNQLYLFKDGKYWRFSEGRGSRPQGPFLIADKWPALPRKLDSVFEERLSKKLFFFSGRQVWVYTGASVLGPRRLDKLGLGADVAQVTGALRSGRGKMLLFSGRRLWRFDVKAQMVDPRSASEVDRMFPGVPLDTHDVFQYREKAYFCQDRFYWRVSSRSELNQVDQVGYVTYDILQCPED

As for SGFLH-WRSTA, the “Kobs” value at MMP-9 (setting [3]) and on MMP-2 [2] (setting [5]) was 0 M⁻¹ s⁻¹ throughout. Moreover, the “relative probability (RP)” value in the assay on MMP-2 [1] (setting [4]) is recorded as 0.05793.

For GIVKH-LQTAS, the “Kobs” value on MMP-9 (setting [3]) worked out at 836.403 M⁻¹ s⁻¹; at MMP-2 [2] (setting [5]), 1711.63 M⁻¹ s⁻¹. Further, the “relative probability (RP)” value in the assay with MMP-2 [1] (setting [4]) was determined as 14.8595.

As to GSGQH-LRVHT, the “Kobs” value at MMP-9 (setting [3]) was determined as 0 M⁻¹ s⁻¹; at MMP-2 [2] (setting [5]), 113.394 M⁻¹ s⁻¹. In addition, the “relative probability (RP)” value with MMP-2 [1] (setting [4]) was 1.164.

On to GTVRS-LITAS, for which the “Kobs” value on MMP-9 (setting [3]) was 2476.66 M⁻¹ s⁻¹; at MMP-2 [2] (setting [5]), 8941.32 M⁻¹ s⁻¹. Further, the “relative probability (RP)” value in the assay on MMP-2 [1] (setting [4]) is listed as 12.3051.

As to KGPEM-LTASG, the “Kobs” value is 5667.28 M⁻¹ s⁻¹ on MMP-9 (setting [3]) and 3637.04 M⁻¹ s⁻¹ at MMP-2 [2] (setting [5]). Moreover, in the assay on MMP-2 [1] (setting [4]), the “relative probability (RP)” value worked out at 16.0599.

For REPLT-LTASG, the “Kobs” value on MMP-9 (setting [6]) and on MMP-2 [2] (setting [8]) was 12792.1 M⁻¹ s⁻¹ in each case. For the same substance, the “relative probability (RP)” value in the assay on MMP-2 [1] (setting [7]) was 24.2603.

On to SKMAH-LTASG, for which the “Kobs” value amounted to 0 M⁻¹ s⁻¹ on MMP-9 (setting [6]) and 2409.72 M⁻¹ s⁻¹ on MMP-2 [2] (setting [8]). The “relative probability (RP)” value in the assay on MMP-2 [1] (setting [7]) came to 29.5006.

As for LLYAS-LTASG, the entries for the “Kobs” value at MMP-9 (setting [3]) and on MMP-2 [2] (setting [5]) were 990.764 M⁻¹ s⁻¹ and 12792.1 M⁻¹ s⁻¹, respectively. Also, the “relative probability (RP)” value with MMP-2 [1] (setting [4]) is reported as 26.9916.

SGVYW-LRSTA: the “Kobs” value worked out at 12792.1 M⁻¹ s⁻¹ on MMP-9 (setting [6]) and 9740.44 M⁻¹ s⁻¹ on MMP-2 [2] (setting [8]). Besides, in the assay on MMP-2 [1] (setting [7]), the “relative probability (RP)” value worked out at 16.4375.

Regarding SGPKS-LVRTA, the “Kobs” value at MMP-9 (setting [6]) and on MMP-2 [2] (setting [8]) was 12792.1 M⁻¹ s⁻¹ each time. Moreover, the “relative probability (RP)” value in the assay with MMP-2 [1] (setting [7]) worked out at 32.0343.

Take SGVRY-LYGTA: the “Kobs” value on MMP-9 (setting [3]) was 8941.32 M⁻¹ s⁻¹; at MMP-2 [2] (setting [5]), 3637.04 M⁻¹ s⁻¹. Moreover, the “relative probability (RP)” value with MMP-2 [1] (setting [4]) is reported as 18.3724.

In the case of ARLGY-LTASG, the “Kobs” value at MMP-9 (setting [6]) was determined as 418.952 M⁻¹ s⁻¹; on MMP-2 [2] (setting [8]) it was 10866.7 M⁻¹ s⁻¹. Also, in the assay with MMP-2 [1] (setting [7]), the “relative probability (RP)” value is 24.8925.

As to VPPEA-ITASG, the “Kobs” value at MMP-9 (setting [3]) and on MMP-2 [2] (setting [5]) was 12792.1 M⁻¹ s⁻¹ throughout. In the assay on MMP-2 [1] (setting [4]), the “relative probability (RP)” value is 22.5231.

Regarding SGSLA-LQSTA, the “Kobs” value is 619.843 M⁻¹ s⁻¹ on MMP-9 (setting [3]) and 27.918 M⁻¹ s⁻¹ at MMP-2 [2] (setting [5]). Further, the “relative probability (RP)” value with MMP-2 [1] (setting [4]) amounted to 6.019.

For RVTWA-LTASG, the “Kobs” value at MMP-9 (setting [3]) is 1196.62 M⁻¹ s⁻¹; at MMP-2 [2] (setting [5]), 0 M⁻¹ s⁻¹. Also, the “relative probability (RP)” value in the assay with MMP-2 [1] (setting [4]) is listed as 0.4366.

For RGPYH-LTASG, the “Kobs” value at MMP-9 (setting [3]) and at MMP-2 [2] (setting [5]) was 12792.1 M⁻¹ s⁻¹ each time. Moreover, the “relative probability (RP)” value in the assay on MMP-2 [1] (setting [4]) was 27.2418.

GSGWA-LKKVT: the “Kobs” value on MMP-9 (setting [3]) and on MMP-2 [2] (setting [5]) was 0 M⁻¹ s⁻¹ in each case. The “relative probability (RP)” value in the assay with MMP-2 [1] (setting [4]) came to 0.09159.

Turning to GLPDF-LTASG, the “Kobs” value on MMP-9 (setting [3]) and on MMP-2 [2] (setting [5]) was 0 M⁻¹ s⁻¹ each time. Further, the “relative probability (RP)” value in the assay with MMP-2 [1] (setting [4]) came to 1.02.

For RKVRN-WTASG, the “Kobs” value was determined as 201.585 M⁻¹ s⁻¹ on MMP-9 (setting [3]) and 0 M⁻¹ s⁻¹ on MMP-2 [2] (setting [5]). Moreover, the “relative probability (RP)” value in the assay on MMP-2 [1] (setting [4]) is listed as 17.7682.

Regarding GSGYH-LRHTT, the “Kobs” value at MMP-9 (setting [6]) turned out to be 0 M⁻¹ s⁻¹; on MMP-2 [2] (setting [8]), 231.616 M⁻¹ s⁻¹. Moreover, in the assay with MMP-2 [1] (setting [7]), the “relative probability (RP)” value was determined as 0.08149.

In the case of TVPYQ-LTASG, the “Kobs” value at MMP-9 (setting [6]) and at MMP-2 [2] (setting [8]) was 12792.1 M⁻¹ s⁻¹ throughout. The “relative probability (RP)” value in the assay on MMP-2 [1] (setting [7]) is 25.4279.

Turning to GSVWH-VRTAS, the “Kobs” value at MMP-9 (setting [3]) stood at 0 M⁻¹ s⁻¹; at MMP-2 [2] (setting [5]) it was 231.616 M⁻¹ s⁻¹. Besides, the “relative probability (RP)” value with MMP-2 [1] (setting [4]) was 0.

Regarding WRYSN-LTASG, the “Kobs” value was found to be 0 M⁻¹ s⁻¹ at MMP-9 (setting [3]) and 8941.32 M⁻¹ s⁻¹ at MMP-2 [2] (setting [5]). For the same substance, the “relative probability (RP)” value in the assay with MMP-2 [1] (setting [4]) was 25.2832.

VKAYN-LTASG: the “Kobs” value on MMP-9 (setting [3]) is 9740.44 M⁻¹ s⁻¹; on MMP-2 [2] (setting [5]), 8941.32 M⁻¹ s⁻¹. For the same substance, the “relative probability (RP)” value in the assay with MMP-2 [1] (setting [4]) amounted to 20.8713.

Consider SGPLG-IRYTA, for which the “Kobs” value at MMP-9 (setting [6]) worked out at 7815.03 M⁻¹ s⁻¹; on MMP-2 [2] (setting [8]), 9740.44 M⁻¹ s⁻¹. Besides, the “relative probability (RP)” value in the assay on MMP-2 [1] (setting [7]) is on record as 33.936.

On to TSLAN-LTASG, for which the “Kobs” value on MMP-9 (setting [3]) is 0 M⁻¹ s⁻¹; at MMP-2 [2] (setting [5]) it was 9740.44 M⁻¹ s⁻¹. In the assay on MMP-2 [1] (setting [4]), the “relative probability (RP)” value was found to be 34.4823.
